Each block holds one compound with its values, some of them ahead of it. The source made the active and inactive calls. The calls are words filed in the database; no cut-off is given here.
Assays:
Orexin receptor type 2 [1] = target: T1, Orexin receptor type 2 (Homo sapiens, UniProt O43614); assay: Antagonist activity at recombinant human OX2R expressed in CHO cells by FLIPR calcium based functional assay; format: cell-based
T1 sequence (O43614 whole entry): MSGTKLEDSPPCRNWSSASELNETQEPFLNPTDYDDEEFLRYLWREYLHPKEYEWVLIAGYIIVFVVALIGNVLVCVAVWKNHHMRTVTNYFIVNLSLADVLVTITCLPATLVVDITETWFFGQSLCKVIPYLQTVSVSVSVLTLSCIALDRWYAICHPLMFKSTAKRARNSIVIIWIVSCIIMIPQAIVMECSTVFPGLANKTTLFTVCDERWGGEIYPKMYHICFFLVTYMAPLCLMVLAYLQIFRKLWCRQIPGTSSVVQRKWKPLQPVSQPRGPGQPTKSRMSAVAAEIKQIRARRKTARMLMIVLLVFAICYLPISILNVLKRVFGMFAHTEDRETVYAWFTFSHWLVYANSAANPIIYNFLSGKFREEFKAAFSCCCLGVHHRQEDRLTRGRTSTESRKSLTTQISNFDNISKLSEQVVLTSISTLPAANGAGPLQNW

[2] = target: T2, Orexin/Hypocretin receptor type 1 (Homo sapiens, UniProt O43613); assay: Antagonist activity at recombinant human OX1R expressed in CHO cells by FLIPR calcium based functional assay; format: cell-based
T2 sequence (O43613 whole entry): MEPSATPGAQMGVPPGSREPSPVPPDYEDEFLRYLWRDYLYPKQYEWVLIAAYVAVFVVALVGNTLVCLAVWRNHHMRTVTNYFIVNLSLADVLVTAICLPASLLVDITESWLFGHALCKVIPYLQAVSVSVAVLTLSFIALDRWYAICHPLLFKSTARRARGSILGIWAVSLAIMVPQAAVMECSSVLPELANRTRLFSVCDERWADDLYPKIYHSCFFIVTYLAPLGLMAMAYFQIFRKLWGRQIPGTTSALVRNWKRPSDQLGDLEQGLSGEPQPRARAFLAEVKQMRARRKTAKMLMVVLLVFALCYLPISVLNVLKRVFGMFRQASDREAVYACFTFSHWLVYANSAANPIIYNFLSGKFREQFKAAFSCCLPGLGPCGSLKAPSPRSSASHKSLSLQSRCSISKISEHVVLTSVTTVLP

Liver microsomes = assay: Intrinsic clearance in human liver microsomes; format: ADME, Microsome
Rattus norvegicus [3] = assay: Hypnotic activity in CD rat Circadian time model assessed as rapid eye movement latency period at 30 mg/kg, po administered during active phase measured from starting time CT18 (reference value: 146.3 +/- 54.2 mins); format: functional
Orexin receptor type 2 [4] = target: T3, Orexin receptor type 2 (Rattus norvegicus, UniProt P56719); assay: Antagonist activity at recombinant rat OX2R expressed in CHO cells by FLIPR calcium based functional assay; format: cell-based
T3 sequence (P56719 whole entry): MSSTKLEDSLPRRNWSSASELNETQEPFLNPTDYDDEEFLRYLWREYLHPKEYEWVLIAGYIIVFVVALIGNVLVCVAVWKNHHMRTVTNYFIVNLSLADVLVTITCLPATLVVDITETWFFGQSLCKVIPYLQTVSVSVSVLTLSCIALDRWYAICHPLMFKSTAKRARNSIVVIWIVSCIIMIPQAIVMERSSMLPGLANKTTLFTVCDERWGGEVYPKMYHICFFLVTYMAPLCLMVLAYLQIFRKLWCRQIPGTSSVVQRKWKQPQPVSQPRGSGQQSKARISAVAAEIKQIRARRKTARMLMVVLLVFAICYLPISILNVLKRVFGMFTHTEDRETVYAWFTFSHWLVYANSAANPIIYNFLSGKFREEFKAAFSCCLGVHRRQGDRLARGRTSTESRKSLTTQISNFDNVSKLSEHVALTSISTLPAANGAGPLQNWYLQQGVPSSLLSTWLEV

Rattus norvegicus [5] = assay: Neurotoxicity in CD rat assessed as impairment of motor coordination at 1 to 10 mg/kg, po by rotarod test; format: toxicity, organism-based; set-up: dose 1-10 mg/kg, route oral; conditions: in vivo
Rattus norvegicus [6] = assay: Hypnotic activity in CD rat Circadian time model assessed as total sleep time at 10 mg/kg, po administered during active phase (reference value: 81 +/- 11 mins); format: functional
Rattus norvegicus [7] = assay: Hypnotic activity in CD rat Circadian time model assessed as rapid eye movement latency period at 10 mg/kg, po administered during active phase measured from starting time CT18 (reference value: 146.3 +/- 54.2 mins); format: functional
Rattus norvegicus [8] = assay: Hypnotic activity in CD rat Circadian time model assessed as rapid eye movement sleep at 3 mg/kg, po administered during active phase measured from starting time CT18 (reference value: 3.22 +/- 0.73 mins); format: functional
Rattus norvegicus [9] = assay: Hypnotic activity in CD rat Circadian time model assessed as rapid eye movement sleep at 10 mg/kg, po administered during active phase measured from starting time CT18 (reference value: 3.22 +/- 0.73 mins); format: functional
[10] = Ratio of drug level in brain to blood in CD rat at 1 mg/kg, iv after 1 hrs; format: ADME, organism-based; set-up: dose 1 mg/kg, route intravenous; conditions: read-out: BBR
Rattus norvegicus [11] = assay: Hypnotic activity in CD rat Circadian time model assessed as awake period at 10 mg/kg, po administered during active phase measured from starting time CT18 (reference value: 218 +/- 11.32 mins); format: functional
Rattus norvegicus [12] = assay: Hypnotic activity in CD rat Circadian time model assessed as non-rapid eye movement latency period at 10 mg/kg, po administered during active phase measured from starting time CT18 (reference value: 46.1 +/- 10.0 mins); format: functional
Rattus norvegicus [13] = assay: Hypnotic activity in po dosed CD rat Circadian time model assessed as non-rapid eye movement latency period during active phase measured from starting time CT18; format: functional, organism-based
[14] = Fraction unbound in CD rat plasma at 1 mg/kg, iv after 1 hrs; format: ADME, organism-based; set-up: dose 1 mg/kg, route intravenous
[15] = Volume of distribution at steady state in CD rat at 1 mg/kg, iv and 3 mg/kg, po; format: ADME, organism-based; conditions: in vivo, read-out: Vdss
Rattus norvegicus [16] = assay: Hypnotic activity in po dosed CD rat Circadian time model assessed as rapid eye movement sleep administered during active phase measured from starting time CT18; format: functional, organism-based
[17] = Plasma clearance in CD rat at 1 mg/kg, iv and 3 mg/kg, po; format: ADME, organism-based
[18] = Fraction unbound in CD rat brain at 1 mg/kg, iv after 1 hrs; format: ADME, organism-based; set-up: dose 1 mg/kg, route intravenous
Rattus norvegicus [19] = assay: In vivo antagonist activity at OX1R in CD rat assessed as reduction of OX-A induced grooming dosed orally 3 hrs before OX-A injection measured after 1 hrs; format: functional, organism-based
Rattus norvegicus [20] = assay: Hypnotic activity in CD rat Circadian time model assessed as non-rapid eye movement sleep at 3 mg/kg, po administered during active phase measured from starting time CT18 (reference value: 78.1 +/- 11.3 mins); format: functional
Rattus norvegicus [21] = assay: Hypnotic activity in CD rat Circadian time model assessed as rapid eye movement latency period at 3 mg/kg, po administered during active phase measured from starting time CT18 (reference value: 146.3 +/- 54.2 mins); format: functional
Rattus norvegicus [22] = assay: Hypnotic activity in CD rat Circadian time model assessed as non-rapid eye movement latency period at 3 mg/kg, po administered during active phase measured from starting time CT18 (reference value: 46.1 +/- 10.0 mins); format: functional
[23] = target: T2, Orexin/Hypocretin receptor type 1; assay: Displacement of [3H]almorexant from recombinant human OX1R expressed in CHO cells; format: cell-based
Rattus norvegicus [24] = assay: Hypnotic activity in CD rat Circadian time model assessed as awake period at 3 mg/kg, po administered during active phase measured from starting time CT18 (reference value: 218 +/- 11.32 mins); format: functional
[25] = target: T4, Orexin/Hypocretin receptor type 1 (Homo sapiens) (UniProt O43613); assay: Agonist activity at recombinant human OX1R expressed in CHO cells at 1 uM; format: functional, cell-based
T4 sequence (whole entry): T2 sequence (O43613 whole entry)

[26] = Oral bioavailability in CD rat at 3 mg/kg; format: ADME, organism-based; conditions: in vivo
Rattus norvegicus [27] = assay: Hypnotic activity in CD rat Circadian time model assessed as awake period at 30 mg/kg, po administered during active phase measured from starting time CT18 (reference value: 218 +/- 11.32 mins); format: functional
[28] = Half life in CD rat at 1 mg/kg, iv and 3 mg/kg, po; format: ADME, organism-based; conditions: in vivo
Rattus norvegicus [29] = assay: Hypnotic activity in CD rat Circadian time model assessed as rapid eye movement sleep at 30 mg/kg, po administered during active phase measured from starting time CT18 (reference value: 3.22 +/- 0.73 mins); format: functional
Rattus norvegicus [30] = assay: Hypnotic activity in CD rat Circadian time model assessed as non-rapid eye movement sleep at 30 mg/kg, po administered during active phase measured from starting time CT18 (reference value: 78.1 +/- 11.3 mins); format: functional
Rattus norvegicus [31] = assay: Hypnotic activity in CD rat Circadian time model assessed as non-rapid eye movement latency period at 30 mg/kg, po administered during active phase measured from starting time CT18 (reference value: 46.1 +/- 10.0 mins); format: functional
[32] = target: T5, Orexin/Hypocretin receptor type 1 (Rattus norvegicus, UniProt P56718); assay: Antagonist activity at recombinant rat OX1R expressed in CHO cells by FLIPR calcium based functional assay; format: cell-based
T5 sequence (P56718 whole entry): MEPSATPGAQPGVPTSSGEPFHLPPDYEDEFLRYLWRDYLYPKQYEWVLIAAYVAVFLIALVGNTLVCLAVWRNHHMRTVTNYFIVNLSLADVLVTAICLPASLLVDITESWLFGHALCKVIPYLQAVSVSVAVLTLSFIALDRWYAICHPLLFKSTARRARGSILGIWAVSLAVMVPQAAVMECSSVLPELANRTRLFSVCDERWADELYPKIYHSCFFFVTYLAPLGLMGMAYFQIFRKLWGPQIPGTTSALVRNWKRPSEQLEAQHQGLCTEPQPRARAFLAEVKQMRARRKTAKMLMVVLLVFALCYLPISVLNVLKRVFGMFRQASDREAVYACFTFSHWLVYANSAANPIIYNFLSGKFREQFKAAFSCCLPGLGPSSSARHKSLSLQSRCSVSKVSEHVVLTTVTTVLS

Orexin receptor type 2 [33] = target: T1, Orexin receptor type 2; assay: Displacement of [3H]almorexant from recombinant human OX2R expressed in CHO cells; format: cell-based
Rattus norvegicus [34] = assay: Hypnotic activity in po dosed CD rat Circadian time model assessed as non-rapid eye movement sleep administered during active phase measured from starting time CT18; format: functional, organism-based
[35] = target: T6, Orexin/Hypocretin receptor type 1 (Rattus norvegicus) (UniProt P56718); assay: Agonist activity at recombinant rat OX1R expressed in CHO cells at 1 uM; format: functional, cell-based
T6 sequence (whole entry): T5 sequence (P56718 whole entry)

Rattus norvegicus [36] = assay: Neurotoxicity in CD rat assessed as impairment of motor coordination at 1 to 10 mg/kg, po by rotarod test in presence of 1 g/kg, ip ethanol; format: toxicity, organism-based; set-up: dose 1-10 mg/kg, route oral; conditions: in vivo
[37] = Cmax in CD rat at 1 mg/kg, iv and 3 mg/kg, po; format: ADME, organism-based; conditions: in vivo
Rattus norvegicus [38] = assay: Hypnotic activity in CD rat Circadian time model assessed as non-rapid eye movement sleep at 10 mg/kg, po administered during active phase measured from starting time CT18 (reference value: 78.1 +/- 11.3 mins); format: functional
Rattus norvegicus [39] = assay: Hypnotic activity in po dosed CD rat Circadian time model assessed as total sleep time measured during active phase after 5 hrs; format: functional, organism-based

Ki (Orexin receptor type 2 [1]): > 3160 nM
Ki [2]: 2510 nM
SMILES: O=C(c1ccc(Cl)c(Cl)c1)N1CCCCC1CCOc1ccc(Cl)c(Cl)c1 (racemic)

CL (Liver microsomes): 23 mL/min/g
Ki (Orexin receptor type 2 [1]): 0.251 nM
Ki [2]: 0.126 nM
SMILES: O=C(NC[C@@H]1CCCCN1C(=O)c1ccccc1-c1ccccc1)c1ccc(F)cc1

Ki (Orexin receptor type 2 [4]): 0.0776 nM
Kp at 1 h [10]: 0.1
fraction unbound at 1 h [14]: 0.0134
Vd [15]: 1.1 L/kg
clearance [17]: 1.44 L/h/kg
fraction unbound at 1 h [18]: 0.0528
Ki [23]: 0.759 nM
CL (Liver microsomes): 15.1 mL/min/g
Activity [25]: inactive
bioavailability [26]: 85%
half-life [28]: < 36 min
Ki [32]: 0.117 nM
Ki (Orexin receptor type 2 [33]): 1.29 nM
Activity [35]: inactive
Cmax [37]: 0.333 µg/mL
SMILES: Cc1nc(C(=O)N2CCCC[C@H]2CNC(=O)c2cccc3occc23)c(-c2ccc(F)cc2)s1 [SB-649868]
Time (Rattus norvegicus [3]): 13.8 min
Activity (Rattus norvegicus [5]): Non-toxic
Time (Rattus norvegicus [6]): 182 min
Time (Rattus norvegicus [7]): 26.6 min
Time (Rattus norvegicus [8]): 6.5 min
Time (Rattus norvegicus [9]): 17.7 min
Time (Rattus norvegicus [11]): 117 min
Time (Rattus norvegicus [12]): 11.6 min
Activity (Rattus norvegicus [13]): Dose-dependent effect
Activity (Rattus norvegicus [16]): Dose-dependent effect
Activity (Rattus norvegicus [19]): Dose-dependent effect
Time (Rattus norvegicus [20]): 99.3 min
Time (Rattus norvegicus [21]): 30.1 min
Time (Rattus norvegicus [22]): 19 min
Time (Rattus norvegicus [24]): 194 min
Time (Rattus norvegicus [27]): 87 min
Time (Rattus norvegicus [29]): 24.1 min
Time (Rattus norvegicus [30]): 186.6 min
Time (Rattus norvegicus [31]): 8.3 min
Activity (Rattus norvegicus [34]): Dose-dependent effect
Activity (Rattus norvegicus [36]): Non-toxic
Time (Rattus norvegicus [38]): 165.2 min
Activity (Rattus norvegicus [39]): Dose-dependent effect

Ki (Orexin receptor type 2 [1]): 0.794 nM
Ki [2]: 0.158 nM
SMILES: O=C(c1ccccc1-c1ccccc1)N1CCCC[C@H]1CCOc1ccc(F)cc1F

Reference: ChEMBL document CHEMBL1828583, “Discovery process and pharmacological characterization of a novel dual orexin 1 and orexin 2 receptor antagonist useful for treatment of sleep disorders” (Bioorg Med Chem Lett, 2011)
